From paper PMC7759869 (Biomedicines, 2020)
Read-outs that look alike come from different tables or passages of the source. Marks after values point to notes of the source that are not given here.

What was measured:
[1] = target: cabozantinib oxidation in pooled human liver microsomes (Homo sapiens, UniProt P08684); assay: Inhibition study: effect of CYP inhibitors on cabozantinib oxidation in pooled human liver microsomes; conditions: pooled human liver microsomes, 50 µM cabozantinib
Protocol: (§1) Inhibition studies in pooled human liver microsomes were conducted with six inhibitors. […] The IC50 values for employed inhibitors were determined by the procedure described previously. […] Then, mixtures were incubated for a further 20 min at 37 °C.

human liver microsomes [2] = assay: Correlation of CYP- and FMO-linked catalytic activities with amounts of cabozantinib metabolites formed in microsomes; format: in vitro ADME; conditions: twelve human microsomal samples; for Correlation coefficient (r) with CYP2C19 activity: (S)-Mephenytoin-4′-hydroxylase; for Correlation coefficient (r) with CYP2B6 activity: (S)-Mephenytoin-N-demethylase; for Correlation coefficient (r) with CYP2D6 activity: Buferalol-1′-hydroxylase; for Correlation coefficient (r) with CYP2E1 activity: Chlorzoxazone-6-hydroxylase; for Correlation coefficient (r) with CYP2A6 activity: Coumarine-7-hydroxylase; for Correlation coefficient (r) with CYP2C9 activity: Diclofenac-4′-hydroxylase; for Correlation coefficient (r) with CYP4A11 activity: Lauric acid-12-hydroxylase; for Correlation coefficient (r) with FMO activity: Methyl-p-tolyl sulfide oxidase; for Correlation coefficient (r) with CYP2C8 activity: Paclitaxel-6α-hydroxylase; for Correlation coefficient (r) with CYP1A2 activity: Phenacetin-O-deethylase; for Correlation coefficient (r) with Total CYPs: amount of metabolite formed vs total CYP content
Protocol: Data are expressed as mean ± SD. Data were analyzed using GraphPad Prism 7 (San Diego, CA, USA) using ANOVA with post-hoc Tukey HSD Test. All p-values are two-tailed and considered significant at the 0.05 level. […] Correlation coefficients (r) were based on a sample size of twelve for human microsomes. All p-values are two-tailed and considered significant at the 0.05 level.
To clarify these correlations, multivariate analysis was used to investigate the dependence of metabolite formation on these CYP activities. Activities of CYP2A6, -2B6 and -2C8 in each microsomal sample were combined in pairs with the activities of CYP3A4 to see if any combination of the activities led to an improvement in the correlation with CYP3A4.

CYPs in human liver = assay: Contributions of CYP enzymes to formation of cabozantinib metabolites in human livers; format: in vitro ADME; conditions: calculated from velocities with cyt b5 and CYP expression levels in human liver
CYP3A4 + cyt b5 = target: T1, CYP3A4 + cyt b5 (Homo sapiens, UniProt P08684); assay: Cabozantinib oxidation by recombinant CYP3A4 in the presence of cyt b5 (Supersomes); format: in vitro ADME; conditions: for VMax: formation of the metabolite from cabozantinib by CYP3A4 + cyt b5
T1 construct: purchased Corning (Corning, NY, USA); host or cells: insect cells (baculovirus)
Source text: (§2) Cabozantinib was from MedChemExpress (Monmouth Junction, NJ, USA). Standard of cabozantinib N-oxide was purchased from Toronto Research Chemicals (Toronto, Canada). Ketoconazole, NADPH and other chemicals were all purchased from Merck (Darnstadt, Germany). The purity of all chemicals met the standards of American Chemical Society, unless otherwise noted. Male human hepatic microsomes (pooled sample) (sample LOT: 3043885) were from Gentest Corp. (Woburn, MA, USA). Microsomes from livers of twelve human donors were obtained from Gentest Corp. (Woburn, MA, USA) (Lot. no. HG43-1, HG103, HG74, HG93, HG24, HG27, HG23, HG32, HK31, HK34, HG03 and HG42). Each human microsomal sample was characterized for CYP, FMO, total protein contents and specific CYP activities by Gentest Corp. and reanalyzed by us by assays described in the protocols of Gentest Corp. Our data were similar to those reported by Gentest Corp. (Table 1). Human recombinant enzymes were used in the forms of Supersomes™ and obtained from Corning (Corning, NY, USA). In Supersomes™, microsomal fractions were isolated from insect cells that were transfected with baculovirus constructs containing cDNA of human CYP enzymes (CYP1A1/2, 1B1, 2A6, 2B6, 2C8/9/18/19/, 2D6, 2E1, 3A4). The Supersomes™ also express NADPH:CYP oxidoreductase (POR). However, because they are microsomes (particles of broken endoplasmic reticulum), other enzymes (proteins) of the endoplasmic reticulum membrane (like NADH:cytochrome b5 reductase and cytochrome b5) are also expressed at basal levels in these Supersomes™. We also utilized Supersomes™, which overexpressed cytochrome b5, in a molar ratio of CYP to cytochrome b5 of 1 to 5. In Supersomes™, where cytochrome b5 was not overexpressed (see above), pure cytochrome b5 was added to reach a molar ratio of CYP to cytochrome b5 of 1 to 5. Reconstitution of Supersomes™ with purified cytochrome b5 was performed as described previously. Human recombinant FMOs and AO were also used in the forms of Supersomes™ (Gentest Corp., Woburn, MA, USA). These microsomal fractions were isolated from insect cells that are transfected with baculovirus constructs containing cDNA of human FMO1, FMO3, FMO5 or AO enzymes.
(§3) The reaction was initiated by adding NADPH. In control incubations, either microsomes or CYP (FMO, AO) or NADPH were omitted. […] The reaction was stopped by extraction with ethyl acetate (2 × 1 mL). […] Cabozantinib metabolites separated by HPLC were characterized by mass spectroscopy (see further details below).

human liver microsomes [3] = assay: Oxidation of cabozantinib by hepatic microsomes of individual human donors (HPLC of metabolites); format: in vitro ADME; conditions: 50 µM cabozantinib, 20 min
human liver microsomes [4] = assay: as above; format: in vitro ADME; conditions: 50 µM cabozantinib, 20 min; remark: listed apart in the source
Source text: as §2, §3

CYP3A4 = CYP3A4 (Homo sapiens, UniProt P08684); assay: Kinetics of cabozantinib oxidation by recombinant CYP3A4 (Supersomes); format: in vitro ADME; design: purchased Corning (Corning, NY, USA); host or cells: insect cells (baculovirus); conditions: formation of the metabolite from cabozantinib by CYP3A4 without cyt b5
Source text: Cabozantinib was from MedChemExpress (Monmouth Junction, NJ, USA). Standard of cabozantinib N-oxide was purchased from Toronto Research Chemicals (Toronto, Canada). Ketoconazole, NADPH and other chemicals were all purchased from Merck (Darnstadt, Germany). The purity of all chemicals met the standards of American Chemical Society, unless otherwise noted. Male human hepatic microsomes (pooled sample) (sample LOT: 3043885) were from Gentest Corp. (Woburn, MA, USA). Microsomes from livers of twelve human donors were obtained from Gentest Corp. (Woburn, MA, USA) (Lot. no. HG43-1, HG103, HG74, HG93, HG24, HG27, HG23, HG32, HK31, HK34, HG03 and HG42). Each human microsomal sample was characterized for CYP, FMO, total protein contents and specific CYP activities by Gentest Corp. and reanalyzed by us by assays described in the protocols of Gentest Corp. Our data were similar to those reported by Gentest Corp. (Table 1). Human recombinant enzymes were used in the forms of Supersomes™ and obtained from Corning (Corning, NY, USA). In Supersomes™, microsomal fractions were isolated from insect cells that were transfected with baculovirus constructs containing cDNA of human CYP enzymes (CYP1A1/2, 1B1, 2A6, 2B6, 2C8/9/18/19/, 2D6, 2E1, 3A4). The Supersomes™ also express NADPH:CYP oxidoreductase (POR). […]

VEGFR2 = conditions: read-out: IC50 for VEGFR2; estimated; cited from earlier work
RET = conditions: estimated; cited from earlier work
MET = conditions: read-out: IC50 for MET; estimated; cited from earlier work
[5] = target: CYP3A (cabozantinib oxidation: formation of desmethyl cabozantinib) (Homo sapiens, UniProt P08684); assay: Inhibition study: effect of CYP inhibitors on cabozantinib oxidation in pooled human liver microsomes; conditions: human
Protocol: as §1

[6] = target: CYP3A (cabozantinib oxidation: formation of monohydroxy cabozantinib) (Homo sapiens, UniProt P08684); assay: as above; conditions: human
Protocol: as §1

[7] = target: CYP3A (cabozantinib oxidation: formation of cabozantinib N-oxide) (Homo sapiens, UniProt P08684); assay: as above; conditions: human
Protocol: as §1

[8] = human liver microsomes sample HK23
[9] = human liver microsomes sample HK27
[10] = human liver microsomes sample HG03
[11] = human liver microsomes sample HG24
[12] = human liver microsomes sample HG32
[13] = human liver microsomes sample HG42
[14] = human liver microsomes sample HG43
[15] = human liver microsomes sample HG74
[16] = human liver microsomes sample HG93
[17] = human liver microsomes sample HG103
[18] = human liver microsomes sample HK31
[19] = human liver microsomes sample HK34

T1 sequence (P08684 whole entry): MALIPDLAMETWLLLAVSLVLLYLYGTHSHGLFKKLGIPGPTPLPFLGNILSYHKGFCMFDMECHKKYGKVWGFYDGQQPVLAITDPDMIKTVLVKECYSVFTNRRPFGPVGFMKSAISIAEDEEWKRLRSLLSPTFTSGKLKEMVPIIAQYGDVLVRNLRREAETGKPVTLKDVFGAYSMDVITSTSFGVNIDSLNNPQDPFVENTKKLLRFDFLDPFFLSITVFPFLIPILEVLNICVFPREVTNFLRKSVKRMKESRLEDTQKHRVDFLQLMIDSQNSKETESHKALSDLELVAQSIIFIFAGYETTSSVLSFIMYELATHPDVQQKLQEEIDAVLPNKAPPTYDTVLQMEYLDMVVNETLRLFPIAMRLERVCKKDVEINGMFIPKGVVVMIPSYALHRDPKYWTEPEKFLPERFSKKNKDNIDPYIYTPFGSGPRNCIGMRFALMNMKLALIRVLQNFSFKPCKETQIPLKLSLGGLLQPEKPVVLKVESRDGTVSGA
Sequence of cabozantinib oxidation in pooled human liver microsomes (P08684 2-503): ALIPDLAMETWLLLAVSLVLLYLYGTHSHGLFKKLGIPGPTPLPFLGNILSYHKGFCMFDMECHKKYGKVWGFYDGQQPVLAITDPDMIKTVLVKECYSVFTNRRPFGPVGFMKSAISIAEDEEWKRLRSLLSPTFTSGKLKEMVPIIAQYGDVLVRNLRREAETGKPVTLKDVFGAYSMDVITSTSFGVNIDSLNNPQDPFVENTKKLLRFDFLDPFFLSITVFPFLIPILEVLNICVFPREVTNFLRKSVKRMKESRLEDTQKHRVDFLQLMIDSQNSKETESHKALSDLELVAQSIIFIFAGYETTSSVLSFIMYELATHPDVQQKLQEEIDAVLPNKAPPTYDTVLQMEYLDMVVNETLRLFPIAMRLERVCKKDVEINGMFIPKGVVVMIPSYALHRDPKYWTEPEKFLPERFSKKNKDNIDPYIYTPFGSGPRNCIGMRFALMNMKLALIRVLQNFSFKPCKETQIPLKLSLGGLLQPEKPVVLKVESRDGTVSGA
Sequence of CYP3A4 (P08684 whole entry): as the sequence (P08684 whole entry) above
Sequence of CYP3A (cabozantinib oxidation: formation of desmethyl cabozantinib) (P08684 2-503): as the sequence (P08684 2-503) above
Sequence of CYP3A (cabozantinib oxidation: formation of monohydroxy cabozantinib) (P08684 2-503): as above
Sequence of CYP3A (cabozantinib oxidation: formation of cabozantinib N-oxide) (P08684 2-503): as above

SMILES	Correlation coefficient (r) with CYP2C19 activity (human liver microsomes [2])	Correlation coefficient (r) with CYP2B6 activity (human liver microsomes [2])	Correlation coefficient (r) with CYP2D6 activity (human liver microsomes [2])	Correlation coefficient (r) with CYP2E1 activity (human liver microsomes [2])	Correlation coefficient (r) with CYP2A6 activity (human liver microsomes [2])	Correlation coefficient (r) with CYP2C9 activity (human liver microsomes [2])	Correlation coefficient (r) with CYP4A11 activity (human liver microsomes [2])	Correlation coefficient (r) with FMO activity (human liver microsomes [2])	Correlation coefficient (r) with CYP2C8 activity (human liver microsomes [2])	Correlation coefficient (r) with CYP1A2 activity (human liver microsomes [2])	Correlation coefficient (r) with Total CYPs (human liver microsomes [2])	Contribution of CYPs other than CYP3A4 to formation of the metabolite in human liver (CYPs in human liver)	VMax (CYP3A4 + cyt b5) [peak area/min/nmol CYP]	Amounts of cabozantinib metabolites (human liver microsomes [3]; [8]) [peak area/incubation time]	Amounts of cabozantinib metabolites (human liver microsomes [3]; [9]) [peak area/incubation time]	Amounts of cabozantinib metabolites (human liver microsomes [4]; [10]) [peak area/incubation time]	Amounts of cabozantinib metabolites (human liver microsomes [4]; [11]) [peak area/incubation time]	Amounts of cabozantinib metabolites (human liver microsomes [4]; [12]) [peak area/incubation time]	Amounts of cabozantinib metabolites (human liver microsomes [4]; [13]) [peak area/incubation time]	Amounts of cabozantinib metabolites (human liver microsomes [4]; [14]) [peak area/incubation time]	also measured
Cc1ccc(-c2c(-c3nn(C)c4ncnc(N5CC[C@H](N6CCCCC6)C5)c34)cnn2C)cc1 [CYP3cide]	–	–	–	–	–	–	–	–	–	–	–	–	–	–	–	–	–	–	–	–	IC50 ([1]; read-out: IC50 for inhibition of formation of cabozantinib N-oxide): < 10 nM; IC50 ([1]; read-out: IC50 for inhibition of formation of desmethyl cabozantinib): < 10 nM; IC50 ([1]; read-out: IC50 for inhibition of formation of monohydroxy cabozantinib): 1120 nM
COc1cc2c(Oc3ccc(NC(=O)C4(C(=O)Nc5ccc(F)cc5)CC4)cc3)ccnc2cc1O [M2, desmethyl cabozantinib]	0.033	0.695 *	−0.015	0.140	0.841 ***	0.086	0.193	0.315	0.654 *	0.280	0.794 **	less than 1%	5.70 ± 0.24	0.130	0.467	0.335	0.149	0.185	0.329	0.625	Amounts of cabozantinib metabolites (human liver microsomes [4]; [15]): 0.256 peak area/incubation time; Amounts of cabozantinib metabolites (human liver microsomes [4]; [16]): 0.371 peak area/incubation time; Amounts of cabozantinib metabolites (human liver microsomes [4]; [17]): 0.144 peak area/incubation time; Amounts of cabozantinib metabolites (human liver microsomes [4]; [18]): 0.377 peak area/incubation time; Amounts of cabozantinib metabolites (human liver microsomes [4]; [19]): 0.305 peak area/incubation time; VMax (CYP3A4): 1.44 ± 0.03 peak area/min/nmol CYP
COc1cc2c(Oc3ccc(NC(=O)C4(C(=O)Nc5ccc(F)cc5)CC4)cc3)cc[n+]([O-])c2cc1OC [M3, cabozantinib N-oxide]	−0.021	0.776 **	−0.043	0.030	0.728 **	0.130	0.223	0.341	0.737 **	0.216	0.811 **	less than 1%	9.96 ± 0.92	0.607	2.228	1.672	0.752	1.338	1.609	3.491	IC50 (VEGFR2): 140 nM; Increase of oxidation / metabolite formation by co-expression of cyt b5 with CYP3A4 (CYP3A4 + cyt b5; Supersomes with cyt b5 vs without, 50 µM cabozantinib): 4.6 fold; Amounts of cabozantinib metabolites (human liver microsomes [4]; [15]): 1.106 peak area/incubation time; Amounts of cabozantinib metabolites (human liver microsomes [4]; [16]): 1.935 peak area/incubation time; Amounts of cabozantinib metabolites (human liver microsomes [4]; [17]): 0.644 peak area/incubation time; Amounts of cabozantinib metabolites (human liver microsomes [4]; [18]): 1.537 peak area/incubation time; Amounts of cabozantinib metabolites (human liver microsomes [4]; [19]): 1.359 peak area/incubation time; IC50 (RET): > 1000 nM; IC50 (MET): 190 nM; VMax (CYP3A4): 1.54 ± 0.04 peak area/min/nmol CYP
CC(=O)N1CCN(c2ccc(OCC3COC(Cn4ccnc4)(c4ccc(Cl)cc4Cl)O3)cc2)CC1 (centres unmarked) [ketoconazole]	–	–	–	–	–	–	–	–	–	–	–	–	–	–	–	–	–	–	–	–	IC50 at 20 min [5]: < 10 nM; IC50 at 20 min [6]: < 10 nM; IC50 at 20 min [7]: < 10 nM
